# System: 817829-284-R-J1-PDC complex spheroid viability
# Assay: Anticancer human tumor 817829-284-R-J1-PDC patient-derived colon adenocarcinoma cell line growth inhibition [POLQ]
# Details: for IC50: curve of first compound; for viability, T/C: stronger effect = lower value
# Procedure, shortened: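 Three-cell-type spheroids modelling solid tumor plus stroma served as the readout system; POL inhibitors were tested individually and in combination, concentration ranges set by clinical Cmax where known.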
# [1] = second compound 0.0316 µM, first compound 0.0316 µM
# [2] = second compound 0.0316 µM, first compound 0.1 µM
# [3] = second compound 0.0316 µM, first compound 0.316 µM
# [4] = second compound 0.0316 µM, first compound 1 µM
# [5] = second compound 0.0316 µM, first compound 3.16 µM
# [6] = second compound 0.0316 µM, first compound 10 µM
# [7] = second compound 0.1 µM, first compound 0.0316 µM
# [8] = second compound 0.1 µM, first compound 0.1 µM
# [9] = second compound 0.1 µM, first compound 0.316 µM
# [10] = second compound 0.1 µM, first compound 1 µM
# [11] = second compound 0.1 µM, first compound 3.16 µM
# [12] = second compound 0.1 µM, first compound 10 µM
# [13] = second compound 0.316 µM, first compound 0.0316 µM
# [14] = second compound 0.316 µM, first compound 0.1 µM
# [15] = second compound 0.316 µM, first compound 0.316 µM
# [16] = second compound 0.316 µM, first compound 1 µM
# [17] = second compound 0.316 µM, first compound 3.16 µM
# [18] = second compound 0.316 µM, first compound 10 µM
# [19] = second compound 1 µM, first compound 0.0316 µM
# [20] = second compound 1 µM, first compound 0.1 µM
# [21] = second compound 1 µM, first compound 0.316 µM
# [22] = second compound 1 µM, first compound 1 µM
# [23] = second compound 1 µM, first compound 3.16 µM
# [24] = second compound 1 µM, first compound 10 µM
# [25] = second compound 3.16 µM, first compound 0.0316 µM
# [26] = second compound 3.16 µM, first compound 0.1 µM
# [27] = second compound 3.16 µM, first compound 0.316 µM
# [28] = second compound 3.16 µM, first compound 1 µM
# [29] = second compound 3.16 µM, first compound 3.16 µM
# [30] = second compound 3.16 µM, first compound 10 µM
# [31] = second compound 10 µM, first compound 0.0316 µM
# [32] = second compound 10 µM, first compound 0.1 µM
# [33] = second compound 10 µM, first compound 0.316 µM
# [34] = second compound 10 µM, first compound 1 µM
# [35] = second compound 10 µM, first compound 3.16 µM
# [36] = second compound 10 µM, first compound 10 µM
# 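Note: spheroids exposed to compounds for 7 days.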
# 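Throughout, for viability, T/C: 100% = DMSO vehicle-treated spheroids.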
compound,measurement,setting,value
C=CC(=O)N1CCN(c2nc(=O)n(-c3c(C)ccnc3C(C)C)c3nc(-c4c(O)cccc4F)c(F)cc23)C(C)C1 (stereo not drawn) + Nc1ccc(C#CCN(C(=O)Cc2ncc(C(F)(F)F)cc2C(F)(F)F)c2ccc(F)cc2)nn1,IC50,second compound 0.0316 µM,> 10000 nM
same,IC50,second compound 0.1 µM,> 10000 nM
same,IC50,second compound 0.316 µM,> 10000 nM
same,IC50,second compound 1 µM,> 10000 nM
same,IC50,second compound 3.16 µM,9670 nM
same,IC50,second compound 10 µM,> 10000 nM
same,"viability, T/C",[1],77.4%
same,"viability, T/C",[2],103%
same,"viability, T/C",[3],97.2%
same,"viability, T/C",[4],93.5%
same,"viability, T/C",[5],91.7%
same,"viability, T/C",[6],51.3%
same,"viability, T/C",[7],95%
same,"viability, T/C",[8],110%
same,"viability, T/C",[9],101%
same,"viability, T/C",[10],99.8%
same,"viability, T/C",[11],84.2%
same,"viability, T/C",[12],60.5%
same,"viability, T/C",[13],104%
same,"viability, T/C",[14],91.3%
same,"viability, T/C",[15],96.6%
same,"viability, T/C",[16],98%
same,"viability, T/C",[17],93.5%
same,"viability, T/C",[18],61.6%
same,"viability, T/C",[19],102%
same,"viability, T/C",[20],119%
same,"viability, T/C",[21],112%
same,"viability, T/C",[22],97.8%
same,"viability, T/C",[23],94.5%
same,"viability, T/C",[24],52.9%
same,"viability, T/C",[25],96%
same,"viability, T/C",[26],89%
same,"viability, T/C",[27],102%
same,"viability, T/C",[28],90.8%
same,"viability, T/C",[29],76.2%
same,"viability, T/C",[30],49.2%
same,"viability, T/C",[31],114%
same,"viability, T/C",[32],84.1%
same,"viability, T/C",[33],90.6%
same,"viability, T/C",[34],90%
same,"viability, T/C",[35],79.8%
same,"viability, T/C",[36],51%
CC1COCCN1c1cc(-c2ccnn2C)c2ccnc(-c3ccn[nH]3)c2n1 (stereo not drawn) + Nc1ccc(C#CCN(C(=O)Cc2ncc(C(F)(F)F)cc2C(F)(F)F)c2ccc(F)cc2)nn1,IC50,second compound 0.0316 µM,45.7 nM
same,IC50,second compound 0.1 µM,47.9 nM
same,IC50,second compound 0.316 µM,41.4 nM
same,IC50,second compound 1 µM,48.6 nM
same,IC50,second compound 3.16 µM,53.6 nM
same,IC50,second compound 10 µM,51.2 nM
same,"viability, T/C",[1],66.6%
same,"viability, T/C",[2],15.1%
same,"viability, T/C",[3],5.55%
same,"viability, T/C",[4],3.95%
same,"viability, T/C",[5],3.46%
same,"viability, T/C",[6],3.51%
same,"viability, T/C",[7],69.3%
same,"viability, T/C",[8],16.2%
same,"viability, T/C",[9],5.6%
same,"viability, T/C",[10],3.72%
same,"viability, T/C",[11],3.57%
same,"viability, T/C",[12],2.68%
same,"viability, T/C",[13],60.5%
same,"viability, T/C",[14],16.4%
same,"viability, T/C",[15],5.61%
same,"viability, T/C",[16],3.98%
same,"viability, T/C",[17],3.56%
same,"viability, T/C",[18],2.61%
same,"viability, T/C",[19],70.6%
same,"viability, T/C",[20],15.2%
same,"viability, T/C",[21],6.24%
same,"viability, T/C",[22],4.01%
same,"viability, T/C",[23],3.75%
same,"viability, T/C",[24],3.12%
same,"viability, T/C",[25],72.8%
same,"viability, T/C",[26],23.1%
same,"viability, T/C",[27],5.89%
same,"viability, T/C",[28],4.04%
same,"viability, T/C",[29],3%
same,"viability, T/C",[30],3.74%
same,"viability, T/C",[31],73.9%
same,"viability, T/C",[32],16.9%
same,"viability, T/C",[33],5.59%
same,"viability, T/C",[34],3.74%
same,"viability, T/C",[35],3.56%
same,"viability, T/C",[36],2.98%
CC1COCCN1c1cc(C2(S(C)(=N)=O)CC2)nc(-c2ccnc3[nH]ccc23)n1 (stereo not drawn) + Nc1ccc(C#CCN(C(=O)Cc2ncc(C(F)(F)F)cc2C(F)(F)F)c2ccc(F)cc2)nn1,IC50,second compound 0.0316 µM,313 nM
same,IC50,second compound 0.1 µM,437 nM
same,IC50,second compound 0.316 µM,409 nM
same,IC50,second compound 1 µM,487 nM
same,IC50,second compound 3.16 µM,471 nM
same,IC50,second compound 10 µM,306 nM
same,"viability, T/C",[1],83.3%
same,"viability, T/C",[2],74.2%
same,"viability, T/C",[3],48.2%
same,"viability, T/C",[4],25.8%
same,"viability, T/C",[5],8.98%
same,"viability, T/C",[6],4.09%
same,"viability, T/C",[7],83.5%
same,"viability, T/C",[8],82.1%
same,"viability, T/C",[9],60.7%
same,"viability, T/C",[10],21.9%
same,"viability, T/C",[11],8.16%
same,"viability, T/C",[12],4.21%
same,"viability, T/C",[13],99.9%
same,"viability, T/C",[14],86.6%
same,"viability, T/C",[15],57.8%
same,"viability, T/C",[16],24.6%
same,"viability, T/C",[17],7.24%
same,"viability, T/C",[18],5.14%
same,"viability, T/C",[19],86.9%
same,"viability, T/C",[20],87.2%
same,"viability, T/C",[21],67.6%
same,"viability, T/C",[22],20.4%
same,"viability, T/C",[23],7.25%
same,"viability, T/C",[24],5.6%
same,"viability, T/C",[25],95.7%
same,"viability, T/C",[26],83.7%
same,"viability, T/C",[27],66%
same,"viability, T/C",[28],22.3%
same,"viability, T/C",[29],6.64%
same,"viability, T/C",[30],4.14%
same,"viability, T/C",[31],86.6%
same,"viability, T/C",[32],76.3%
same,"viability, T/C",[33],48.1%
same,"viability, T/C",[34],23.1%
same,"viability, T/C",[35],5.64%
same,"viability, T/C",[36],5.25%
Cn1ncnc1[C@H]1c2n[nH]c(=O)c3cc(F)cc(c23)N[C@@H]1c1ccc(F)cc1 + Nc1ccc(C#CCN(C(=O)Cc2ncc(C(F)(F)F)cc2C(F)(F)F)c2ccc(F)cc2)nn1,IC50,second compound 0.0316 µM,38.9 nM
same,IC50,second compound 0.1 µM,43.5 nM
same,IC50,second compound 0.316 µM,21.4 nM
same,IC50,second compound 1 µM,37.5 nM
same,IC50,second compound 3.16 µM,48.9 nM
same,IC50,second compound 10 µM,26.5 nM
same,"viability, T/C","second compound 0.0316 µM, first compound 0.000316 µM",97.7%
same,"viability, T/C","second compound 0.0316 µM, first compound 0.001 µM",82.9%
same,"viability, T/C","second compound 0.0316 µM, first compound 0.00316 µM",85%
same,"viability, T/C","second compound 0.0316 µM, first compound 0.01 µM",63.8%
same,"viability, T/C",[1],55.5%
same,"viability, T/C",[2],35%
same,"viability, T/C","second compound 0.1 µM, first compound 0.000316 µM",79.9%
same,"viability, T/C","second compound 0.1 µM, first compound 0.001 µM",89.2%
same,"viability, T/C","second compound 0.1 µM, first compound 0.00316 µM",76.1%
same,"viability, T/C","second compound 0.1 µM, first compound 0.01 µM",69.5%
same,"viability, T/C",[7],58.7%
same,"viability, T/C",[8],30.9%
same,"viability, T/C","second compound 0.316 µM, first compound 0.000316 µM",107%
same,"viability, T/C","second compound 0.316 µM, first compound 0.001 µM",92.5%
same,"viability, T/C","second compound 0.316 µM, first compound 0.00316 µM",64.8%
same,"viability, T/C","second compound 0.316 µM, first compound 0.01 µM",64.2%
same,"viability, T/C",[13],47.4%
same,"viability, T/C",[14],31.7%
same,"viability, T/C","second compound 1 µM, first compound 0.000316 µM",94.8%
same,"viability, T/C","second compound 1 µM, first compound 0.001 µM",93.2%
same,"viability, T/C","second compound 1 µM, first compound 0.00316 µM",69.2%
same,"viability, T/C","second compound 1 µM, first compound 0.01 µM",65.6%
same,"viability, T/C",[19],55.2%
same,"viability, T/C",[20],37.1%
same,"viability, T/C","second compound 3.16 µM, first compound 0.000316 µM",87.3%
same,"viability, T/C","second compound 3.16 µM, first compound 0.001 µM",93.8%
same,"viability, T/C","second compound 3.16 µM, first compound 0.00316 µM",63.9%
same,"viability, T/C","second compound 3.16 µM, first compound 0.01 µM",67.4%
same,"viability, T/C",[25],58%
same,"viability, T/C",[26],41%
same,"viability, T/C","second compound 10 µM, first compound 0.000316 µM",107%
same,"viability, T/C","second compound 10 µM, first compound 0.001 µM",80.1%
same,"viability, T/C","second compound 10 µM, first compound 0.00316 µM",80.5%
same,"viability, T/C","second compound 10 µM, first compound 0.01 µM",61.6%
same,"viability, T/C",[31],49.7%
same,"viability, T/C",[32],32.4%
